IC50 data for twelve compounds are collected here from ChEMBL document CHEMBL1130763, “Nonpeptide glycoprotein IIb/IIIa inhibitors: substituted quinazolinediones and quinazolinones as potent fibrinogen receptor antagonists” (Bioorg Med Chem Lett, 1998).

One may read the IC50 as the midpoint of a concentration-inhibition curve. High values mean weaker potency, low ones greater potency.

This assay is filed under the species Homo sapiens. Nature of the assay: In vitro inhibition of platelet aggregation by measuring its effect on the ADP-stimulated aggregation of human platelets. Type of assay: functional.
Compound `CCCCS(=O)(=O)N[C@@H](Cc1ccc(OCCCCC2CCNCC2)cc1)C(=O)O` displayed an IC50 of 15 nM. The result for `CCCCS(=O)(=O)NC(CCCc1ccc2c(c1)c(=O)n(CCC1CCNCC1)c(=O)n2Cc1ccncc1)C(=O)O` (configuration not stated) reads 100 nM; that for `CCCCS(=O)(=O)NC(CC#Cc1ccc2c(c1)c(=O)n(CCC1CCNCC1)c(=O)n2Cc1ccccc1)C(=O)O` (configuration not stated), 61 nM.

`CCCCS(=O)(=O)NC(CCCc1ccc2c(c1)c(=O)n(CCC1CCNCC1)c(=O)n2Cc1ccccc1)C(=O)O` (configuration not stated) had an IC50 of 160 nM. As for `CCCCS(=O)(=O)NC(CC#Cc1ccc2c(c1)c(=O)n(CCC1CCNCC1)c(=O)n2C)C(=O)O` (configuration not stated), the concentration for half-maximal inhibition (IC50) turned out to be 67 nM. Take `CCCCS(=O)(=O)NC(CC#Cc1ccc2nc(C)n(CCC3CCNCC3)c(=O)c2c1)C(=O)O` (configuration not stated): the half-maximal inhibitory concentration (IC50) was 43 nM. The result for `CCCCS(=O)(=O)NC(CC#Cc1ccc2[nH]c(=O)n(CCC3CCNCC3)c(=O)c2c1)C(=O)O` (configuration not stated) reads 37 nM; that for `CCCCS(=O)(=O)NC(CC#Cc1ccc2c(c1)c(=O)n(CCC1CCNCC1)c(=O)n2Cc1ccncc1)C(=O)O` (configuration not stated), 74 nM; that for `CCCCS(=O)(=O)NC(CNC(=O)c1ccc2[nH]c(=O)n(CCC3CCNCC3)c(=O)c2c1)C(=O)O` (configuration not stated), 210 nM. Then `CCCCS(=O)(=O)NC(CCCc1ccc2c(c1)c(=O)n(CCC1CCNCC1)c(=O)n2C)C(=O)O` (configuration not stated), with 140 nM; and `CCCCS(=O)(=O)NC(CCCc1ccc2[nH]c(=O)n(CCC3CCNCC3)c(=O)c2c1)C(=O)O` (configuration not stated), with 160 nM.

In turn, `CCCCS(=O)(=O)N[C@@H](CNC(=O)c1ccc2c(c1)C(=O)N(CCC1CCNCC1)C2)C(=O)O` had an IC50 of 9 nM.
